From ChEMBL document CHEMBL5543174, “A Nonbactericidal Anionic Antimicrobial Peptide Provides Prophylactic and Therapeutic Efficacies against Bacterial Infections in Mice by Immunomodulatory-Antithrombotic Duality” (J Med Chem, 2024)
Activity calls are given as the source filed them. The calls are words filed in the database; no cut-off is given here.

How the values were obtained:
[1] = tested on: Candida albicans; test: Antimicrobial activity against Candida albicans ATCC 2002 assessed as reduction in metabolic activity at 2 times MIC incubated for 1 to 4 hrs by CCK-8 assay; assay type: functional, organism-based; settings: time 1-4 hrs
[2] = tested on: Escherichia coli; test: Antimicrobial activity against Escherichia coli ATCC 25922 assessed as reduction in microbial colony forming unit at 2 times MIC incubated for 1 to 4 hrs by time-kill kinetics based analysis; assay type: functional, organism-based; settings: time 1-4 hrs
[3] = tested on: Escherichia coli; test: Antimicrobial activity against Carbapenem-resistant Escherichia coli assessed as reduction in metabolic activity at 2 times MIC incubated for 1 to 4 hrs by CCK-8 assay; assay type: functional, organism-based; settings: time 1-4 hrs
[4] = tested on: Candida albicans; test: Antimicrobial activity against Candida albicans ATCC 2002 assessed as reduction in microbial colony forming unit at 2 times MIC incubated for 1 to 4 hrs by time-kill kinetics based analysis; assay type: functional, organism-based; settings: time 1-4 hrs
[5] = tested on: Staphylococcus aureus; test: Antimicrobial activity against Staphylococcus aureus ATCC 25923 assessed as reduction in metabolic activity at 2 times MIC incubated for 1 to 4 hrs by CCK-8 assay; assay type: functional, organism-based; settings: time 1-4 hrs
[6] = tested on: Staphylococcus aureus; test: Antimicrobial activity against Staphylococcus aureus ATCC 25923 assessed as reduction in microbial colony forming unit at 2 times MIC incubated for 1 to 4 hrs by time-kill kinetics based analysis; assay type: functional, organism-based; settings: time 1-4 hrs
[7] = tested on: Staphylococcus aureus; test: Antimicrobial activity against Methicillin-resistant Staphylococcus aureus assessed as reduction in microbial colony forming unit at 2 times MIC incubated for 1 to 4 hrs by time-kill kinetics based analysis; assay type: functional, organism-based; settings: time 1-4 hrs
[8] = tested on: Staphylococcus aureus; test: Antimicrobial activity against Methicillin-resistant Staphylococcus aureus assessed as reduction in metabolic activity at 2 times MIC incubated for 1 to 4 hrs by CCK-8 assay; assay type: functional, organism-based; settings: time 1-4 hrs
[9] = tested on: Escherichia coli; test: Antimicrobial activity against Carbapenem-resistant Escherichia coli assessed as reduction in microbial colony forming unit at 2 times MIC incubated for 1 to 4 hrs by time-kill kinetics based analysis; assay type: functional, organism-based; settings: time 1-4 hrs
[10] = tested on: Escherichia coli; test: Antimicrobial activity against Escherichia coli ATCC 25922 assessed as reduction in metabolic activity at 2 times MIC incubated for 1 to 4 hrs by CCK-8 assay; assay type: functional, organism-based; settings: time 1-4 hrs
[11] = tested on: Mus musculus; test: Antithrombotic activity in FeCl3-induced carotid arterial thrombosis C57BL/6 mouse model assessed as increase in blood flow by measuring time to occlusion at 10 mg/kg,SC administration observed for 30 mins by laser speckle perfusion imaging analysis; assay type: functional; settings: 0.5 h
[12] = tested on: Peritoneal macrophage; test: Induction of chemotaxis in mouse Peritoneal macrophage assessed as upregulation of MCP-1 production at 100 ug/ml preincubated with PTX followed by compound addition by ELISA; assay type: functional; settings: dose 100 µg/ml
[13] = tested on: Platelet; test: Anti-platelet aggregation activity in human Platelet rich plasma assessed as inhibition of PMA-induced aggregation at 100 ug/ml preincubated with compound for 5 mins followed by PMA addition by platelet aggregometry relative to control; assay type: functional; parameters: scale not given: the % may be the effect or the level left; settings: dose 100 µg/ml
[14] = tested on: Platelet; test: Anti-platelet aggregation activity in human Platelet rich plasma assessed as inhibition of collagen-induced aggregation at 100 ug/ml preincubated with compound for 5 mins followed by collagen addition by platelet aggregometry relative to control; assay type: functional; parameters: scale not given: the % may be the effect or the level left; settings: dose 100 µg/ml
[15] = tested on: Peritoneal macrophage cell; test: Induction of phagocytosis in mouse Peritoneal macrophage cultured with Carbapenem-resistant Escherichia coli assessed as number of surviving engulfed bacteria at 100 ug/ml incubated for 1.5 hrs followed by bacterial exposure for 1 hr by plate counting method; assay type: functional; settings: dose 100 µg/ml; time 2.5 hrs
[16] = tested on: Peritoneal macrophage cell; test: Induction of chemotaxis in mouse Peritoneal macrophage assessed as upregulation of CXCL1 production at 100 ug/ml preincubated with PTX followed by compound addition by ELISA; assay type: functional; settings: dose 100 µg/ml
[17] = tested on: Peritoneal macrophage; test: Induction of phagocytosis in mouse Peritoneal macrophage cultured with Carbapenem-resistant Escherichia coli assessed as number of surviving engulfed bacteria at 25 ug/ml incubated for 1.5 hrs followed by bacterial exposure for 1 hr by plate counting method; assay type: functional; settings: dose 25 µg/ml; time 2.5 hrs
[18] = tested on: Peritoneal macrophage cell; test: Induction of phagocytosis in mouse Peritoneal macrophage cultured with Methicillin-resistant Staphylococcus aureus assessed as number of surviving engulfed bacteria at 25 ug/ml incubated for 1.5 hrs followed by bacterial exposure for 1 hr by plate counting method; assay type: functional; settings: dose 25 µg/ml; time 2.5 hrs
[19] = tested on: Peritoneal macrophage cell; test: Induction of phagocytosis in mouse Peritoneal macrophage cultured with Methicillin-resistant Staphylococcus aureus assessed as number of surviving engulfed bacteria at 100 ug/ml incubated for 1.5 hrs followed by bacterial exposure for 1 hr by plate counting method; assay type: functional; settings: dose 100 µg/ml; time 2.5 hrs
[20] = tested on: Peritoneal macrophage cell; test: Induction of phagocytosis in mouse Peritoneal macrophage cultured with Methicillin-resistant Staphylococcus aureus assessed as number of surviving engulfed bacteria at 50 ug/ml incubated for 1.5 hrs followed by bacterial exposure for 1 hr by plate counting method; assay type: functional; settings: dose 50 µg/ml; time 2.5 hrs
[21] = tested on: Platelet; test: Anti-platelet aggregation activity in human Platelet rich plasma assessed as inhibition of ADP-induced aggregation at 100 ug/ml preincubated with compound for 5 mins followed by ADP addition by platelet aggregometry relative to control; assay type: functional; parameters: scale not given: the % may be the effect or the level left; settings: dose 100 µg/ml
[22] = tested on: Peritoneal macrophage; test: Induction of chemotaxis in mouse Peritoneal macrophage assessed as upregulation of CXCL2 production at 100 ug/ml preincubated with PTX followed by compound addition by ELISA; assay type: functional; settings: dose 100 µg/ml
[23] = tested on: Peritoneal macrophage cell; test: Induction of phagocytosis in mouse Peritoneal macrophage cultured with Carbapenem-resistant Escherichia coli assessed as number of surviving engulfed bacteria at 50 ug/ml incubated for 1.5 hrs followed by bacterial exposure for 1 hr by plate counting method; assay type: functional; settings: dose 50 µg/ml; time 2.5 hrs
[24] = tested on: Peritoneal macrophage; test: Cytotoxicity against mouse Peritoneal macrophage at <= 200 ug/ml incubated for 24 hrs by CCK-8 assay; assay type: toxicity, cell-based; settings: dose < 200 µg/ml
[25] = tested on: Erythrocyte; test: Hemolytic activity in rabbit erythrocytes at 25 to 200 ug/ml incubated for 30 mins by absorbance based analysis; assay type: toxicity, cell-based, Oryctolagus cuniculus; settings: 0.5 h, dose 25-200 µg/ml
[26] = Acute toxicity in C57BL/6 mouse assessed as change in ALT level in serum at 10 mg/kg,ip administration measured after 24 hrs; assay type: organism-based; settings: in vivo
[27] = Acute toxicity in C57BL/6 mouse assessed as change in creatinine level in serum at 30 mg/kg,ip administration measured after 24 hrs; assay type: organism-based; settings: in vivo
[28] = Acute toxicity in C57BL/6 mouse assessed as change in creatinine level in serum at 10 mg/kg,ip administration measured after 24 hrs; assay type: organism-based; settings: in vivo
[29] = Acute toxicity in C57BL/6 mouse assessed as change in ALT level in serum at 30 mg/kg,ip administration measured after 24 hrs; assay type: organism-based; settings: in vivo
[30] = tested on: Neutrophil; test: Cytotoxicity against mouse bone marrow derived neutrophil at <= 200 ug/ml incubated for 24 hrs by CCK-8 assay; assay type: toxicity, cell-based; settings: dose < 200 µg/ml
[31] = tested on: Erythrocyte; test: Hemolytic activity in mouse erythrocytes at 25 to 200 ug/ml incubated for 30 mins by absorbance based analysis; assay type: toxicity, cell-based; settings: 0.5 h, dose 25-200 µg/ml

C[C@@H](O)[C@H]1C(=O)N2C(C(=O)O)=C(S[C@@H]3CN[C@H](C(=O)N(C)C)C3)[C@H](C)[C@H]12
Activity [1]: Active | Activity [2]: Active | Activity [3]: Active | Activity [4]: Active | Activity [5]: Active | Activity [6]: Active | Activity [7]: Active | Activity [8]: Active | Activity [9]: Active | Activity [10]: Active

CC[C@H](C)[C@H](NC(=O)[C@@H]1CSSC[C@H](NC(=O)[C@H](CCC(=O)O)NC(=O)[C@@H](NC(=O)[C@H](CCCCN)NC(=O)[C@H](Cc2c[nH]cn2)NC(=O)[C@@H](NC(=O)[C@H](CCCCN)NC(=O)[C@H](CCC(=O)O)NC(=O)[C@H](C)NC(=O)[C@H](CCC(=O)O)NC(=O)[C@H](CCC(=O)O)NC(=O)[C@H](CCC(=O)O)NC(=O)[C@H](C)N)[C@@H](C)O)[C@@H](C)O)C(=O)N[C@@H](CC(C)C)C(=O)N[C@@H](CCC(=O)O)C(=O)N1)C(=O)N[C@@H](Cc1ccccc1)C(=O)N[C@H](C(=O)N[C@@H](CC(C)C)C(=O)N[C@@H](CC(C)C)C(=O)N1CCC[C@H]1C(=O)N1CCC[C@H]1C(=O)N[C@@H](C)C(=O)O)[C@@H](C)O [listing 1 of 2 here]
Time [11]: 28.5 min | Activity [12]: 52.8% | Activity [13]: 78.01% | Activity [14]: 57.72% | Activity [15]: 234 | Activity [16]: 56.8% | Activity [17]: 279 | Activity [18]: 793 | Activity [19]: 244 | Activity [20]: 532 | Activity [21]: 54.2% | Activity [22]: 63.2% | Activity [23]: 245

CC[C@H](C)[C@H](NC(=O)[C@@H]1CSSC[C@H](NC(=O)[C@H](CCC(=O)O)NC(=O)[C@@H](NC(=O)[C@H](CCCCN)NC(=O)[C@H](Cc2c[nH]cn2)NC(=O)[C@@H](NC(=O)[C@H](CCCCN)NC(=O)[C@H](CCC(=O)O)NC(=O)[C@H](C)NC(=O)[C@H](CCC(=O)O)NC(=O)[C@H](CCC(=O)O)NC(=O)[C@H](CCC(=O)O)NC(=O)[C@H](C)N)[C@@H](C)O)[C@@H](C)O)C(=O)N[C@@H](CC(C)C)C(=O)N[C@@H](CCC(=O)O)C(=O)N1)C(=O)N[C@@H](Cc1ccccc1)C(=O)N[C@H](C(=O)N[C@@H](CC(C)C)C(=O)N[C@@H](CC(C)C)C(=O)N1CCC[C@H]1C(=O)N1CCC[C@H]1C(=O)N[C@@H](C)C(=O)O)[C@@H](C)O [listing 2 of 2 here]
Activity [24]: Non-Toxic | Activity [25]: Non-Toxic | Activity [26]: Non-Toxic | Activity [27]: Non-Toxic | Activity [28]: Non-Toxic | Activity [29]: Non-Toxic | Activity [30]: Non-Toxic | Activity [31]: Non-Toxic

CC[C@H](C)[C@H](NC(=O)[C@H](CCCCN)NC(=O)[C@H](CCC(=O)O)NC(=O)[C@H](CCCCN)NC(=O)[C@H](CO)NC(=O)[C@H](CCCCN)NC(=O)[C@H](CCCNC(=N)N)NC(=O)[C@H](Cc1ccccc1)NC(=O)[C@H](Cc1ccccc1)NC(=O)[C@H](CC(=O)O)NC(=O)CNC(=O)[C@H](CC(C)C)NC(=O)[C@@H](N)CC(C)C)C(=O)NCC(=O)N[C@@H](CCCCN)C(=O)N[C@@H](CCC(=O)O)C(=O)N[C@@H](Cc1ccccc1)C(=O)N[C@@H](CCCCN)C(=O)N[C@@H](CCCNC(=N)N)C(=O)N[C@H](C(=O)N[C@H](C(=O)N[C@@H](CCC(N)=O)C(=O)N[C@@H](CCCNC(=N)N)C(=O)N[C@H](C(=O)N[C@@H](CCCCN)C(=O)N[C@@H](CC(=O)O)C(=O)N[C@@H](Cc1ccccc1)C(=O)N[C@@H](CC(C)C)C(=O)N[C@@H](CCCNC(=N)N)C(=O)N[C@@H](CC(N)=O)C(=O)N[C@@H](CC(C)C)C(=O)N[C@H](C(=O)N1CCC[C@H]1C(=O)N[C@@H](CCCNC(=N)N)C(=O)N[C@H](C(=O)N[C@@H](CCC(=O)O)C(=O)N[C@@H](CO)C(=O)O)[C@@H](C)O)C(C)C)[C@@H](C)CC)C(C)C)[C@@H](C)CC
Activity [1]: Active | Activity [2]: Active | Activity [3]: Active | Activity [4]: Active | Activity [5]: Active | Activity [6]: Active | Activity [7]: Active | Activity [8]: Active | Activity [9]: Active | Activity [10]: Active
